Legend:
[1] = test system: MCF-7 cells; assay: TUNEL assay, MCF-7; type: cell-based, human; settings: 4-OH-Tamoxifen 1 μM, 24 hours
Method: (§1) Cell Culture. T-47D cells obtained from ATCC were grown in RPMI 1640 (phenol red free), supplemented with 10% FBS (GIBCO BRL). BT-474 cells were grown in RPMI 1640 medium (phenol red free) supplemented with 10% FBS and ATCC recommended supplements. MCF-7 cells were grown in DMEM medium (phenol red free), supplemented with 10% FBS. The cells were grown at 37° C. in a humid atmosphere in the presence of 5% CO2. The MDA-MB-134 cells were grown in Leibovitz's L-15 medium supplemented with 20% FBS and grown in CO2 free atmosphere. The breast cancer cells were trypsinized (0.02% Trypsin—EDTA) and grown in their respective media (phenol red free) supplemented with 10% CSS (Charcoal stripped serum) for a week. Subsequently the cells were trypsinized again and plated onto an 8 chambered slide system (Lab Tek II) at a confluence of 60–70% per chamber. The next day treatments were performed on the breast cancer cells using their respective media(phenol red free), supplemented with 1% CSS. The MDA-MB-134 VI cells were grown in phenol red containing medium, but with the same serum conditions as the other breast cancer cells.
Terminal deoxynucleotidly transferase mediated dUTP nick end labeling (TUNEL) assay. Nicks of the fragmented DNA are labeled at their 3-OH ends. The fluorescein-labeled dUTP is incorporated at the 3-OH ends by using the enzyme terminal deoxynucleotidyl transferase. […]

[2] = test system: T47-D human breast cancer cells; assay: 96 well cell proliferation assay with conditioned media (MTS-PMS); type: cell-based
Method: HPRLG129R Conditioned Media. The assay conditions were modified from that described by Ginsburg and Vonderharr (1995, Cancer Res. 55:2591–2595). T47-D cells were trypsinized and passed into 96 well plates in RPMI-1640 media containing 1% DCC-FCS in a volume of 100 μl/well. The optimal cell number/well for each cell line was pre-determined after titration assay. For T47-D cells, 15,000 cells/well were plated. The cells were allowed to settle and adhere overnight (12–18 hours) and subsequently various concentrations of either hPRL, hRPL-G129R, E2 or 4-OH-Tamoxifen in a total volume of 100 μl of culture media were added. Purified hPRL (kindly provided by Dr. Parlow, National Hormone & Pituitary Program, NIH) was used as a positive control for hPRL produced from stable L cells. Cells were incubated for an additional 96 hours at 37° C. in a humidified 5% CO2 incubator. After incubation, MTS-PMS solution (Cell Titer 96 Aqueous kit, Promega Corp.) was added to each well, following the manufacturer's instructions. Plates were read at 490 nm using a BIO-RAD benchmark microplate reader. The experiments were carried out in triplicates and repeated three to six times for each cell line.

[3] = test system: T-47D human breast cancer cells; assay: TUNEL assay, T-47D; type: cell-based
Method: as §1
(§2) Terminal deoxynucleotidly transferase mediated dUTP nick end labeling (TUNEL) assay. Nicks of the fragmented DNA are labeled at their 3-OH ends. The fluorescein-labeled dUTP is incorporated at the 3-OH ends by using the enzyme terminal deoxynucleotidyl transferase. After the assigned period of treatment the chambers were dismantled as per the manufacturer's instructions and the TUNEL assay (Apoptosis detection system, Fluorescein- Promega) was performed as per the manufacturer's instructions. The slide was examined under a FITC filter using an Olympus IX 70 microscope system.

[4] = test system: BT-474 cells; assay: TUNEL assay, BT-474; type: cell-based, human; settings: 4-OH-Tamoxifen 1 μM, 24 hours
Method: as §1, §2

[5] = test system: T47D human breast cancer cells; assay: Cell proliferation assay, cell counting; type: cell-based; settings: for proliferation of T47D cells relative to untreated control cultures: FIGS. 5A-B; for shape of dose response curve, T-47D cell number: FIG. 4
Method: Cell proliferation assays. hPRLA was tested for its ability to inhibit breast cancer cell proliferation in tissue culture. The human breast cancer cells were grown in corresponding culture media according to ATCC recommendations. Cells were maintained at 37° C. in a humidified atmosphere of 5% CO2 in air. The assay conditions were essentially as described by Ginsburg and Vonderharr (1995, Cancer Res. 55:2591–2595). For individual growth experiments, cells were plated in 12 well culture plates at a density of approximately 2×10^4 /ml, 1 ml/ well. Cells were then allowed to attach for one day (T-47D, MCF-7, HTB19, and HTB20 cells, except for HTB 123, which is a suspension cells), then the overlying media was removed and changed to serum-free conditions with media containing ITS^+ (insulin-transferring-selenium-BSA-linoleic acid culture supplement; Collaborative Research Bedford, Mass.). Varying concentrations of hPRL alone or in combination with hPRLA were introduced. After an additional three days in culture, cells were harvested after brief trypsinization and counted in a cell counter.

[6] = test system: tyrosine phosphorylation of STAT protein; settings: literature; cited from earlier work
[7] = test system: hGH receptor on T-47D and HTB123 cells; assay: Competitive radioreceptor binding assay; design: species or system human; settings: T-47D and HTB123 compared to leukemia, lymphoma and retinoblastoma cells
[8] = test system: tyrosine phosphorylation of STAT5 protein in T-47D human breast cancer cells; assay: hPRL induction of tyrosine phosphorylation of STAT5 protein (Example 8); type: cell-based; settings: T-47D cells, 5 nM of hormone alone, Western blot FIG. 3
From the text: Assay of hPRL induction of tyrosine phosphorylation of STAT5 protein. […] Tyrosyl phosphorylation of STAT 5 is a receptor mediated event and is thought to be an important step in ligand-induced signal transduction (Wakao et al., 1994, EMBO J. 13: 2182–2191; Kazansky et al., 1995, Mol. Endocrinol. 9:1598–1609; Waxman et al., 1995, J. Biol. Chem. 270:13262–13270). This assay was used to evaluate the ability of hPRL and hPRLA to inhibit induction of STAT 5 phosphorylation by wild type PRL.
Briefly, human breast cancer cells were plated in 12-well plates. After pre-incubation in serum-free DMEM for 2–3 hours, the cells were exposed to various concentration of hPRL and hPRLA in serum-free DMEM. The cells were incubated for 15 min at 37° C., washed once with PBS, and lysed in 300 μl lysis buffer (50 mM Tris-HCl, pH 6.8, 1% SDS, 1% β-mecaptoethanol, 0.1M DTT, 5% Sucrose, 100 uM Sodium Orthovanadate, and 0.6% bromphenol blue). Thirty microliters of cell lysates were subjected to 4–12.5% SDS-PAGE and immunoblot analysis using horse radish peroxidase (HRP)-conjugated anti-phosphotyrosine antibody PY20 and ECL reagent kit (Amersham, Ill.). Blots were then exposed to X-ray films and developed using standard procedures (Kodak, Rochester, N.Y.). This assay has been described in Chen et al., 1994, J. Biol. Chem. 269: 15892–15897; Chen et al., 1995, Endocrinol. 136:660–667; Wang et al., 1994, Proc. Natl. Acad. Sci. U.S.A. 91:1391–1395; Chen et al., 1995, Mol. Endocrinol. 9(3):292–302; Harding et al., 1996, J. Biol. Chem. 271(12):6708–6712.

[9] = test system: T47D human breast cancer cells; assay: Mixed cell culture assay with transfected L cells, T47D; type: cell-based; settings: co-culture with transfected L cells, 24 h to five days
From the text: For certain experiments, a mixed cell culture assay was used, diagramatically represented in FIG. 6. In this assay, breast cancer cells were co-cultured with expressor cells which had been transfected with nucleic acid encoding PRL or a PRL variant and expressing those recombinant proteins. By varying the number of expressor cells, the amount of PRL or PRL variant present in the mixed cell culture was increased or decreased. […] In certain wells, which served as a control, no expresser cells were added. Then, increasing numbers of expresser cells (transfected L cells expressing either HPRL (L-PRL) or hPRLA (L-PRLA)) were added to breast cancer cell-containing wells to create mixed cultures. The same numbers of expressor cells were cultured in parallel (without T47D cells) to serve as controls. After culturing under standard conditions for a period of time, the number of cells present in the wells was counted, and the number of L cells in the corresponding control culture was subtracted. The resulting number could then be compared to the number of T47D cells in the T47D control culture to evaluate the effects of the recombinant product on breast cancer cell proliferation.

## CC/C(=C(\c1ccc(O)cc1)c1ccc(OCCN(C)C)cc1)c1ccccc1 [4-OH-Tamoxifen, reference compound]
[1]
  induction of apoptosis: did not induce apoptosis
[2]; 100 nM 4-OH-Tamoxifen alone
  inhibition of cell proliferation: 15%
[2]; 4-OH-Tamoxifen at 500 nM, T47-D
  maximum inhibition by a single dose: approximately 15 % of control
[3]; 4-OH-Tamoxifen 1 μM, 24 hours
  induction of apoptosis: did not induce apoptosis
[4]
  induction of apoptosis: did not induce apoptosis

## CC/C(=C(\c1ccccc1)c1ccc(OCCN(C)C)cc1)c1ccccc1 [tamoxifen, reference compound]
[5]
  proliferation of T47D cells relative to untreated control cultures: comparable inhibitory effect

## estrogen [reference compound]
[5]
  proliferation of T47D cells relative to untreated control cultures: increased proliferation

## hGH-G120R: GH antagonist, variant of human GH with glycine at position 120 substituted with arginine
[6]
  effect on GH induction of STAT protein phosphorylation: inhibit GH induction of STAT protein phosphorylation in a dose dependent manner

## hGH: human growth hormone
[5]
  shape of dose response curve, T-47D cell number: bell shaped dose response curves
[7]
  hGH receptor specific binding: minimum

B1: hPRL: human prolactin, recombinant from transfected mouse L cells or purified from NIH (protein)
chain: LPICPGGAARCQVTLRDLFDRAVVLSHYIHNLSSEMFSEFDKRYTHGRGFITKAINSCHTSSLATPEDKEQAQQMNQKDFLSLIVSILRSWNEPLYHLVTEVRGMQEAPEAILSKAVEIEEQTKRLLEGMELIVSQVHPETKENEIYPVWSGLPSLQMADEESRLSAYYNLLHCLRRDSHKIDNYLKLLKCRIIHNNNC
[2]; hPRL 100 ng/ml with 10 nM E2
  maximum response in the presence of E2 compared to hPRL alone: more than tripled
[2]; hPRL 250 ng/ml, single dose, four-day incubation
  maximum stimulation over basal levels: approximately 20%
[2]; single dose, four-day incubation
  effect on T47-D proliferation, dose response: stimulated T47-D proliferation in a dose dependent manner
[8]
  induction of phosphorylation of STAT5 proteins: induced
[5]
  shape of dose response curve, T-47D cell number: bell shaped dose response curves
  proliferation of T47D cells relative to untreated control cultures: increased proliferation
[9]
  T47D proliferation relative to untreated T47D cell cultures: increase in T47D proliferation
[3]; 4:1 ratio (500 ng/ml hPRL, 125 ng/ml hPRL-G129R)
  reversal of G129R-induced DNA fragmentation: competitively reverse the DNA fragmentation
